Like-named read-outs stand apart in the source and are kept apart here.

For assay [1], the system named is ACTH and β-END-LI secretion. Briefly: secretion of ACTH and β-END-LI, general procedure (Examples V, VI). As to conditions: general procedure of Example III as printed. The method, then: (§1) The urotensin peptides from Examples II and III are examined for effects on the secretion of ACTH and β-endorphin in vitro and also examined in vivo. […] UI activity of the peptides was measured by the isolated rat hind limb assay, Lederis, K. et al. "Effects and Assay of Urotensin I on the Perfused Hind Limb of the Rat", Gen. Comp. Endocrinol., 24:10-16, 1974. In vivo hypotensive activity of extracted peptides was measured in anaesthetized rats, Lederis, K. and Medakovic, M. "Pharmacological Observations on the Hypotensive Action of Extracts of Teleost Fish Urophyses (Urotensin I) in the Rat", Br. J. Pharmacol. 51:315-324, 1974, and in anaesthetized dogs, MacCannell and Lederis, "Dilatation of the Mesenteric Vascular Bed of the Dog Produced by a Peptide, Urotensin I", J. Pharm. Exp. Ther. 203:38-46, 1977.
(§2) The peptide having the formula: Ac-[…]NH2 is synthesized.

For assay [2], the system named is blood pressure. Kind of assay: mammalian vasodilatory-hypotensive activity (mesenteric blood flow, systemic blood pressure), species not stated. It is filed as in vivo. The method, then: as §1, §2
The peptide having the formula: H-Pro-Pro-Ile-Ser-Ile-Asp-Leu-Thr-Phe-His-Leu-Leu-Arg-Asn-Met-Ile-Glu-Met- Ala-Arg-Ile-Glu-Asn-Glu-Arg-NH2 is synthesized.

Assay [3] concerns cultured rat pituitary cells. Briefly: secretion of ACTH and β-endorphin by cultured rat pituitary cells. It is filed as cell-based. As to conditions: for potency to stimulate the secretion of ACTH and β-endorphin: in vitro; for potency to stimulate ACTH and β-endorphin secretion compared with amunine (CRF): the two peptides substantially indistinguishable from each other. The protocol:
as §1

Assay [4] concerns ACTH and β-END-LI secretion. Briefly: ACTH and β-END-LI secretion in vivo in several rat preparations. The protocol: as §1
The subject of assay [5] is mesenteric vascular bed. Briefly: blood pressure and mesenteric vasodilatation in the anaesthetized dog. It is filed as in vivo. As to conditions: for potency of synthetic peptide versus extracted and purified peptide: anaesthetized dog in vivo; for dilatation of other (non-mesenteric) vascular beds / depression of the blood pressure: dog; for depression of the blood pressure: appears due solely to dilatation of the mesenteric vascular bed; for accompanying change in blood pressure (decrease) / increase in mesenteric flow: pentobarbital-anaesthetized dog, doses of 0.1-0.5 μg. The protocol:
as §1
(§3) In the pentobarbital-anaesthetized dog, the threshold dose of UI for mesenteric vasodilatation, when given close arterially into the cephalic mesenteric A, is between 0.001 and 0.01 μg for both sucker UI (1-41) and for the 4-41 fragment of sucker UI. Doses of 0.1-0.5 μg of both peptides produce a 50-150% increase in mesenteric flow; accompanying changes in blood pressure are very modest (about 10% decrease). […] Comp. Endocrinol. 45:446-452, 1981. Comparison of the two extracted and the two synthetic sucker peptides indicate that synthetic UI(1-41) have 111±16% activity and synthetic UI (4-41) have 123±14% activity, relative to the activity of the respective extracted sucker UI peptides.

Assay [6] deals with mesenteric vascular bed. Kind of assay: blood pressure and vascular dilatation in the monkey. It is filed as in vivo. As to conditions: for depression of the blood pressure: appears due solely to dilatation of the mesenteric vascular bed. The method, then:
as §1

In assay [7] the test system is blood pressure. Briefly: in vivo hypotensive activity in anaesthetized rats. As to conditions: rat; vascular dilatation appears less selective. The method, then:
(§4) UI activity in the fractions was measured by the isolated rat hind limb assay, Lederis, K. et al. "Effects and Assay of Urotensin I on the Perfused Hind Limb of the Rat." Gen Comp Endocrinol. 24:10-16, 1974. In vivo hypotensive activity of extracted peptides or those obtained by enzymatic cleavage was measured in anaesthetized rats, Lederis, K. et al. "Pharmacological Observations on the Hypotensive Action of Extracts of Teleost Fish Urophyses (Urotensin I) in the Rat", Br. J. Pharmac. 51:315-324, 1974.
as §1

The subject of another assay is teleost fish pituitaries. Briefly: secretion of ACTH by teleost fish pituitaries. The method, then: as §1
Another assay concerns isolated rat hind limb. Briefly: isolated rat hind limb assay. The method, then: as §4
as §1, with “1977. […]” for “1977.”

In assay [8] the test system is isolated mesenteric artery strips. Briefly: isolated mesenteric artery strips of the rat. The method, then: as §3
The nature of assay [9]: comparison of extracted and synthetic sucker peptides (activity relative to extracted peptide). As to conditions: synthetic versus extracted peptide. The method, then:
as §3

In assay [10] the test system is blood pressure. As to conditions: reported, Erspamer et al.; cited from earlier work.
Assay [11] has as its system ACTH and β-endorphin secretion. As to conditions: reported; cited from earlier work.

On to “Ac-APPISIDLTFHLLRNMIEMARIENEREQAGLNRKYLDEV-NH2 [V]”, for which the “stimulation of the secretion of ACTH and β-END-LI” value in [1] was “stimulates the secretion of ACTH and β-END-LI”. The “vasodilatory-hypotensive activity (mesenteric blood flow, systemic blood pressure)” value (from here on “vasodilatory-hypotensive activity”) in the assay on blood pressure [2] is “very significant increasing of mesenteric blood flow and lowering of systemic blood pressure”.

Take “H-NDDPPISIDLTFHLLRNMIEMARIENEREQAGLNRKYLDEV-NH2 [urotensin I]”: in assay [3], the “potency to stimulate the secretion of ACTH and β-endorphin” value (from here on “potency to stimulate the secretion”) is reported as “high potency”; the “potency to stimulate ACTH and β-endorphin secretion compared with amunine (CRF)” value is reported as “comparable to amunine (CRF)”. Also, the “potency to stimulate the secretion” value in assay [3] (listed as synthetic UI) was “stimulate ACTH and β-endorphin activies in vitro”. The “stimulation of ACTH and β-END-LI secretion in vivo” value (from here on “stimulation … in vivo”) in assay [4] is “stimulate ACTH and β-END-LI secretion in vivo”. Besides, the “stimulation … in vivo” value in assay [4] (listed as synthetic UI) is “stimulate ACTH and β-endorphin activies in vitro and in vivo”. In the assay with mesenteric vascular bed [5], the “potency of synthetic peptide versus extracted and purified peptide” value is “equipotent with the extracted and purified peptides”; the “dilatation of other (non-mesenteric) vascular beds” value is on record as “neither peptide dilates other vascular beds”; the “depression of the blood pressure” value is recorded as “modest but sustained depression of the blood pressure”; the “accompanying change in blood pressure (decrease)” value was “about 10%”. In addition, the “increase in mesenteric flow” value with mesenteric vascular bed [5] is 50-150%. Further, in the assay on mesenteric vascular bed [6], the “dilatation of other (non-mesenteric) vascular beds” value was “neither peptide dilates other vascular beds” and the “depression of the blood pressure” value is given as “modest but sustained depression of the blood pressure”. The “fall in blood pressure” value in the assay with blood pressure [7] was “more marked fall in blood pressure”. Moreover, the “potency in stimulating the secretion of ACTH relative to amunine” value in the assay with teleost fish pituitaries is given as “several times more potent than amunine”. Moreover, the “potency of synthetic peptide versus extracted and purified peptide” value in the assay with isolated rat hind limb was “equipotent with the extracted and purified peptides”. Besides, in assay [8], the “potency of synthetic peptide versus extracted and purified peptide” value was “equipotent with the extracted and purified peptides”. Besides, the “activity relative to the activity of the respective extracted sucker UI peptide” value in assay [9] came to 111±16%. Besides, the “vasodilatory-hypotensive activity” value with blood pressure [2] is “substantially lower blood presssure for an extended time period”.

`CC[C@H](C)[C@H](NC(=O)[C@@H](NC(=O)[C@H](CC(=O)O)NC(=O)[C@H](CC(C)C)NC(=O)[C@H](CC(C)C)NC(=O)[C@H](CC(C)C)NC(=O)[C@H](CCCNC(=N)N)NC(=O)[C@H](CC(N)=O)NC(=O)[C@H](CC(N)=O)NC(=O)[C@H](C)NC(=O)[C@H](C)NC(=O)[C@H](CCC(N)=O)NC(=O)[C@H](CCC(N)=O)NC(=O)[C@H](CCCCN)NC(=O)[C@H](CCC(=O)O)NC(=O)[C@H](CCCCN)NC(=O)[C@H](CCC(=O)O)NC(=O)[C@H](CCC(N)=O)NC(=O)[C@H](CCCCN)NC(=O)[C@H](CCC(=O)O)NC(=O)[C@@H](NC(=O)[C@H](CCC(=O)O)NC(=O)[C@@H](NC(=O)[C@H](CCSC)NC(=O)[C@H](CCCCN)NC(=O)[C@H](CCCNC(=N)N)NC(=O)[C@H](CC(C)C)NC(=O)[C@H](CC(C)C)NC(=O)[C@H](CCC(=O)O)NC(=O)[C@H](CC(C)C)NC(=O)[C@H](CO)NC(=O)[C@H](CC(C)C)NC(=O)[C@H](CC(=O)O)NC(=O)[C@@H](NC(=O)[C@H](CO)NC(=O)[C@@H](NC(=O)[C@@H]1CCCN1C(=O)[C@@H]1CCCN1C(=O)CNC(=O)[C@@H]1CCC(=O)N1)[C@@H](C)CC)[C@@H](C)CC)[C@@H](C)CC)[C@@H](C)CC)[C@@H](C)O)C(N)=O` [Sauvagine]: in the assay on blood pressure [10], the “lowering blood pressure in mammals” value was “biological activity in lowering blood pressure in mammals”. The “stimulating the secretion of ACTH and β-endorphin” value in assay [11] was “stimulating the secretion of ACTH and β-endorphin”.

As to “H-PPISIDLTFHLLRNMIEMARIENER-NH2 [VI, H-Pro-Pro-Ile-Ser-Ile-Asp-Leu-Thr-Phe-His-Leu-Leu-Arg-Asn-Met-Ile-Glu-Met- Ala-Arg-Ile-Glu-Asn-Glu-Arg-NH2]”, the “vasodilatory-hypotensive activity” value with blood pressure [2] was “significant mammalian vasodilatory-hypotensive activity”.

Regarding “H-PPISIDLTFHLLRNMIEMARIENEREQAGLNRKYLDEV-NH2 [urotensin I (4-41)]”, in assay [3], the “potency to stimulate the secretion” value is listed as “high potency”; the “potency to stimulate ACTH and β-endorphin secretion compared with amunine (CRF)” value is given as “comparable to amunine (CRF)”. In addition, in [3] (listed as UI 4-41), the “potency to stimulate the secretion” value is “stimulate ACTH and β-endorphin activies in vitro”. Also, the “stimulation … in vivo” value in assay [4] was “stimulate ACTH and β-END-LI secretion in vivo”. Also, in assay [4] (listed as UI 4-41), the “stimulation … in vivo” value was “stimulate ACTH and β-endorphin activies in vitro and in vivo”. Besides, in the assay with mesenteric vascular bed [5], the “potency of synthetic peptide versus extracted and purified peptide” value was “equipotent with the extracted and purified peptides”; the “dilatation of other (non-mesenteric) vascular beds” value is on record as “neither peptide dilates other vascular beds”; the “depression of the blood pressure” value is reported as “modest but sustained depression of the blood pressure”; the “accompanying change in blood pressure (decrease)” value is “about 10%”. Besides, the “increase in mesenteric flow” value in the assay with mesenteric vascular bed [5] is 50-150%. In addition, in the assay on mesenteric vascular bed [6], the “dilatation of other (non-mesenteric) vascular beds” value is reported as “neither peptide dilates other vascular beds” and the “depression of the blood pressure” value was “modest but sustained depression of the blood pressure”. Further, the “fall in blood pressure” value with blood pressure [7] was “more marked fall in blood pressure”. Further, in the assay with teleost fish pituitaries, the “potency in stimulating the secretion of ACTH relative to amunine” value is listed as “several times more potent than amunine”. For the same compound, in the assay with isolated rat hind limb, the “potency of synthetic peptide versus extracted and purified peptide” value is “equipotent with the extracted and purified peptides”. Also, the “potency of synthetic peptide versus extracted and purified peptide” value in [8] was “equipotent with the extracted and purified peptides”. For the same compound, the “activity relative to the activity of the respective extracted sucker UI peptide” value in assay [9] turned out to be 123±14%. Also, the “vasodilatory-hypotensive activity” value in the assay on blood pressure [2] was “substantially lower blood presssure for an extended time period”.

(Values after US4528189A, “Urotensin peptides” (The Salk Institute For Biological Studies, priority 1983, dated 1985).)
